This is an account of results in patent US20060167006A1, “Method of treatment” (priority 2003, published 2006).

Assay [1] deals with TAKA-1 cells. The experiment in a line: MTT cell growth assay, TAKA-1 cells (Example 1). Format: cell-based, Syrian golden hamster. Conditions: 72 h. The source says: (§1) Cell culture and proliferation assay: The following materials are purchased: FCS, RPMI and Dulbecco's modified Eagle medium (DMEM), trypsin-EDTA solution, penicillin-streptomycin solution from Biochrom K G (Berlin, Germany). All the other reagents are from Sigma Chemical Co. (St. Louis, Mo., USA). ASPC-1, MIA PaCA-2, human pancreatic cell lines are obtained from American Type Culture Collection (Rockville, Md.). Compound I is kindly provided by Novartis Pharma AG (Basel, Switzerland). T3M4 human pancreatic cell lines are a gift from Dr. R. S. Metzgar (Durham, N.C., USA). TAKA-1 immortalized Syrian golden hamster pancreatic ductal cells are a gift from Prof. P. Pour (University of Nebraska, Omaha, Nebr., USA). Human pancreatic cancer cell lines are routinely grown in DMEM (MIA-PaCA-2) or RPMI (ASPC-1, T3M4) supplemented with 10% FCS, 100 U/ml penicillin and 100 μg/ml streptomycin (complete medium).
TAKA-1 cells are grown in RPMI supplemented with 10% FCS, 100 U/ml penicillin and 100 μg/ml streptomycin. Cells are seeded overnight at a density of 5000 cells/well in 96-well plates and the proliferation assay is performed as described above. […] After 72 hours, 3-(4,5-methylthiazol-2-yl)-2,5-diphenyl-tetrazolium bromide (MTT) is added (50 μg/well) for 4 hours. Cellular MTT is solubilized with acidic isopropanol and the optical density is measured at 570 nm using a plate reader (Dynatech MR 7000). All experiments are performed in triplicates.
Statistical analysis: Results are expressed as mean±SD. For statistical analysis, the Student t-test is used. Significance is defined as p<0.05.

Assay [2] relates to ASPC-1 cells. In words: MTT cell growth assay, ASPC-1 cells (Example 1). Format: cell-based, human.
Excerpt: as §1
(§2) TAKA-1 cells are grown in RPMI supplemented with 10% FCS, 100 U/ml penicillin and 100 μg/ml streptomycin. Cells are seeded overnight at a density of 5000 cells/well in 96-well plates and the proliferation assay is performed as described above. […] Cellular MTT is solubilized with acidic isopropanol and the optical density is measured at 570 nm using a plate reader (Dynatech MR 7000). […]
(§3) Statistical analysis: Results are expressed as mean±SD. […]

Assay [3] has as its system MIA PaCA-2 cells. In words: MTT cell growth assay, MIA PaCA-2 cells (Example 1). Format: cell-based. Conditions: Homo sapiens, MIA PaCa-2, 72 h, Mia-Paca-2, 75 μM Compound I, read-out: Percent growth inhibition by comparison with control cell growth.
Excerpt: as §1, §2, §3

The subject of assay [4] is T3M4 cells. In words: MTT cell growth assay, T3M4 cells (Example 1). Format: cell-based, human.
Excerpt: as §1, §2, §3

Assay [5] deals with Capan-1 cells. The experiment in a line: GI50 by MTT assay, Capan-1 (Example 2). In kind it is cell-based. Conditions: Homo sapiens, Capan-1, complete medium (10% FBS), 48 h, read-out: GI50 concentration. The source says:
(§4) Material and Methods: RPMI-1640 DMEM, trypsin-EDTA, and penicillin-streptomycin are purchased from Invitrogen (Karlsruhe, Germany); FBS from PAN Biotech (Aidenbach, Germany); human recombinant PDGF, IGF-1 and FGF-2 from R&D Systems (Abingdon, United Kingdom), and EGF from Upstate Biotechnology (Hamburg, Germany). Phospho-PDGFR-beta (tyr857) and P-EGFR (tyr1173) polyclonal antibodies are purchased from Santa Cruz Biotechnology, Inc. (Santa Cruz, Calif., USA). Phospho-p44/42 MAPK (Thr202/Tyr204) antibodies are purchased from Cell Signaling Technology (Frankfurt, Germany), anti-rabbit IgG HRPO-linked antibodies and ECL immunoblotting detection reagents from Amersham Biosciences (Amersham Life Science, Amersham, UK), and anti-goat IgG-HPRO peroxidase linked antibodies from Santa Cruz Biotechnology, Inc. (Santa Cruz, Calif., USA). Complete mini-EDTA-free protease inhibitor cocktail tablets and Annexin-V-Fluos are purchased from Roche GmbH (Mannheim, Germany). All other reagents are from Sigma Chemical Company (Taufkirchen, Germany).
(§5) Cell culture and MTT assay: Human pancreatic cancer cell lines are routinely grown in DMEM (Colo-357 and Mia-PaCa-2) or RPMI (Aspc-1, BxPc-3, Capan-1, and T3M4) supplemented with 10% FBS, 100 U/ml penicillin, and 100 μg/ml streptomycin (complete medium). […] Formazan products are solubilized with acidic isopropanol, and the optical density is measured at 570 nm. […]

Assay [6] deals with six tested pancreatic cancer cell lines. The experiment in a line: GI50 by MTT assay, span over all six pancreatic cancer cell lines. Format: cell-based. The note with it: Homo sapiens, read-out: GI50 concentration, range over cell lines.
Excerpt: as §4, §5

In assay [7] the test system is Mia-PaCa-2 cells. In words: Propidium iodide staining of cell death, Mia-PaCa-2. In kind it is cell-based, human. Conditions: Mia-PaCa-2, Compound I at GI50, 1% FBS medium; control 10.7% ±2.5%. The text has this: (§6) The resulting DNA histograms are interpreted using the Cell Quest Pro software (Becton Dickinson and Company, New York, USA).
Assay [8] deals with pancreatic cancer cell lines. The experiment in a line: FACS cell cycle analysis. Format: cell-based, human. The note with it: 48 hours of incubation, Compound I at GI50, compared to untreated cells.
Excerpt: as §6

Assay [9] concerns T3M4 cells. In words: Growth factor-induced proliferation (MTT), T3M4. Format: cell-based, human. Conditions: T3M4, IGF-1 plus Compound I at GI50, 72 hours, MTT. Here is the method: Cell culture and MTT assay: Human pancreatic cancer cell lines are routinely grown in DMEM (Colo-357 and Mia-PaCa-2) or RPMI (Aspc-1, BxPc-3, Capan-1, and T3M4) supplemented with 10% FBS, 100 U/ml penicillin, and 100 μg/ml streptomycin (complete medium). To assess cell proliferation, the MTT test is employed. […] After 48 or 72 hours of incubation, 3-(4,5-methylthiazol-2-yl)-2,5-diphenyl-tetrazolium bromide (MTT) is added (50 μg/well) for 4 hours. Formazan products are solubilized with acidic isopropanol, and the optical density is measured at 570 nm. […] All experiments are performed in triplicate.
EGF-induced proliferation of both Mia-PaCa-2 and T3M4 cell lines in a dose-dependent manner is seen with maximal effects of +72% ±7.5% (Mia-PaCa-2) and +52% ±23% (T3M4). […] FGF-2 markedly stimulates cell growth in Mia-PaCa-2 cell lines with maximal effects of +79% ±6%, and only slightly stimulated T3M4 cell lines, with maximal effects of +7% ±4%. […] Both cell lines are less sensitive to IGF-1 stimulation compared with EGF and FGF-2, with maximal effects of +24% ±2% in Mia-PaCa-2 and +17% ±4% in. T3M4.

Assay [10] deals with pancreatic tumor cells. The note with it: complete medium (10% FCS) and 1% FCS medium.
Excerpt: as §6

Assay [11] deals with Lung cancer (6 cell lines). The note with it: other reported cancer cells, read-out: GI50 concentration; cited from earlier work.
The test system of assay [12] is Lung cancer (A549 cell line). The note with it: other reported cancer cells, read-out: GI50 concentration; cited from earlier work.
In assay [13] the test system is CML (K562 cell lines). Conditions: other reported cancer cells, read-out: GI50 concentration; cited from earlier work.

Where “and” joins values, the source holds several entries; their conditions need not be identical. Equal values may be shown once. Entries after “also recorded” stand apart in the source; their conditions may differ. Read-outs that look alike come from different tables or passages of the source.

As for `Cc1ccc(NC(=O)c2ccc(CN3CCN(C)CC3)cc2)cc1Nc1nccc(-c2cccnc2)n1` [Compound I], the inhibition at 25 µM in [1] (Mesocricetus auratus, TAKA-1, 25 μM Compound I, read-out: Percent growth inhibition by comparison with control cell growth) came out at 70.9%. Moreover, the inhibition at 75 µM came to 90.8% in assay [1] (Mesocricetus auratus, TAKA-1, 75 μM Compound I, read-out: Percent growth inhibition by comparison with control cell growth); 85.6% in assay [2] (Homo sapiens, ASPC1, 72 h, Aspc-1, 75 μM Compound I, read-out: Percent growth inhibition by comparison with control cell growth); 86.6% in assay [3]; 85.6% in assay [4] (Homo sapiens, T3M4, 72 h, T3M4, 75 μM Compound I, read-out: Percent growth inhibition by comparison with control cell growth). For the same compound, the “Percent growth inhibition by comparison with control cell growth” value in assay [1] (TAKA-1, 25 μM Compound I, 25 µM) was −65% and −67.9%; in assay [1] (TAKA-1, 75 μM Compound I, 75 µM), −91.5% and −90.6%; in [2] (Aspc-1, 5 μM Compound I, 72 h, 5 µM), −12.9% and −4.8% and −3.7%; in assay [4] (T3M4, 5 μM Compound I, 72 h, 5 µM), −12.9% and −4.8% and −3.8%. For the same compound, the GI50 in assay [5] was 19 µM; in assay [6] (all six pancreatic cancer cell lines, 10% FBS/FCS medium), 17 to 31.5 µM; in [6] (pancreatic cancer cell lines, low serum conditions (1% FCS)) it was 9 to 20 µM; in assay [11] it was about 5 µM; in [12], 2 to 3 µM; in assay [13], 0.56 µM. Further, in assay [7], the “Cell death by propidium iodide staining” value amounted to 33.7±16.5%. Also, the “Change in cell cycle pattern” value in [8] was “does not reveal any significant changes in the cell cycle pattern; also recorded: no cell cycle change”. For the same compound, the “Inhibitory effect on IGF-1-induced proliferation” value in assay [9] is recorded as “no significant inhibitory effects”. Further, in assay [10], the Apoptotic cell death result is listed as “No apoptotic cell death is observed”.
